Patent US6812028B1, “Embryogenesis and plant regeneration from microspores” (University of Guelph, priority 1999, dated 2004)

Tested on: spring wheat Pavon 79 microspores
Test: AGP concentrations in microspore culture in MMS4 liquid media
Format: cell-based
Conditions: for # at Day 12 Alive / # at Day 12 Dead / # at Day 12 Dividing / # at Day 12 ELS / # at Day 12 Multicellular / # at Day 12 Total Developing / Day 50 # of embryos: 4 rep average
Method: In an experiment with Pavon 79, concentrations of 0, 10, 25, 50, 100, 500 and 1000 mg/L were used in microspore culture with 4 ovaries around a drop of liquid medium with microspores on top of solidified medium. […] However, higher concentrations can also be used. […] It was observed that 10 to 14 days in induction medium with AGP may be maximal as it appears that regeneration may be reduced with longer periods on medium with AGP.

Substance: arabinogalactan protein [AGP]
- # at Day 12 Alive (AGP 10 mg/L): 69.3
- # at Day 12 Dead (AGP 10 mg/L): 58.9
- # at Day 12 Dividing (AGP 10 mg/L): 23.9
- # at Day 12 ELS (AGP 10 mg/L): 8.7
- # at Day 12 Multicellular (AGP 10 mg/L): 33.8
- # at Day 12 Total Developing (AGP 10 mg/L): 66.4
- Day 50 # of embryos (AGP 10 mg/L): 4493
- # at Day 12 Alive (AGP 25 mg/L): 66.6
- # at Day 12 Dead (AGP 25 mg/L): 69.3
- # at Day 12 Dividing (AGP 25 mg/L): 13.6
- # at Day 12 ELS (AGP 25 mg/L): 10.3
- # at Day 12 Multicellular (AGP 25 mg/L): 38
- # at Day 12 Total Developing (AGP 25 mg/L): 61.9
- Day 50 # of embryos (AGP 25 mg/L): 3538
- # at Day 12 Alive (AGP 50 mg/L): 47.9
- # at Day 12 Dead (AGP 50 mg/L): 75
- # at Day 12 Dividing (AGP 50 mg/L): 10.7
- # at Day 12 ELS (AGP 50 mg/L): 5
- # at Day 12 Multicellular (AGP 50 mg/L): 13.2
- # at Day 12 Total Developing (AGP 50 mg/L): 28.9
- Day 50 # of embryos (AGP 50 mg/L): 471
- # at Day 12 Alive (AGP 100 mg/L): 66.4
- # at Day 12 Dead (AGP 100 mg/L): 61
- # at Day 12 Dividing (AGP 100 mg/L): 17.3
- # at Day 12 ELS (AGP 100 mg/L): 2.9
- # at Day 12 Multicellular (AGP 100 mg/L): 32.2
- # at Day 12 Total Developing (AGP 100 mg/L): 52.4
- Day 50 # of embryos (AGP 100 mg/L): 3709
- # at Day 12 Alive (AGP 500 mg/L): 57.3
- # at Day 12 Dead (AGP 500 mg/L): 61
- # at Day 12 Dividing (AGP 500 mg/L): 19.4
- # at Day 12 ELS (AGP 500 mg/L): 4.5
- # at Day 12 Multicellular (AGP 500 mg/L): 27.7
- # at Day 12 Total Developing (AGP 500 mg/L): 51.6
- Day 50 # of embryos (AGP 500 mg/L): 3267
- # at Day 12 Alive (AGP 1000 mg/L): 69.3
- # at Day 12 Dead (AGP 1000 mg/L): 56
- # at Day 12 Dividing (AGP 1000 mg/L): 14.8
- # at Day 12 ELS (AGP 1000 mg/L): 7
- # at Day 12 Multicellular (AGP 1000 mg/L): 28.5
- # at Day 12 Total Developing (AGP 1000 mg/L): 50.3
- Day 50 # of embryos (AGP 1000 mg/L): 1821
- microspore viability at day 12 versus control with no AGP (AGP 10-1000 mg/L, Pavon 79): not significantly different from the control value
- embryogenesis across AGP concentrations (AGP concentrations of 10 or 25 mg/liter): optimal embryogenesis
- total number of developing structures (in the presence of AGP, day 12, Pavon 79): improved
